These results are taken from US20260364184A1, “COMPOUND BASED ON OXOISOINDOLINYL-SUBSTITUTED TETRAHYDROPYRIMIDINE-DIONE AND USE THEREOF” (GLUETACS THERAPEUTICS (SHANGHAI) CO., LTD., priority 2023, published 2026).

Assay type in all cases: cell-based
In one assay the target is T1, AR (Homo sapiens, UniProt P10275).
T1 construct: expression of target proteins in cells; endogenous in cells
T1 sequence (P10275 1-920): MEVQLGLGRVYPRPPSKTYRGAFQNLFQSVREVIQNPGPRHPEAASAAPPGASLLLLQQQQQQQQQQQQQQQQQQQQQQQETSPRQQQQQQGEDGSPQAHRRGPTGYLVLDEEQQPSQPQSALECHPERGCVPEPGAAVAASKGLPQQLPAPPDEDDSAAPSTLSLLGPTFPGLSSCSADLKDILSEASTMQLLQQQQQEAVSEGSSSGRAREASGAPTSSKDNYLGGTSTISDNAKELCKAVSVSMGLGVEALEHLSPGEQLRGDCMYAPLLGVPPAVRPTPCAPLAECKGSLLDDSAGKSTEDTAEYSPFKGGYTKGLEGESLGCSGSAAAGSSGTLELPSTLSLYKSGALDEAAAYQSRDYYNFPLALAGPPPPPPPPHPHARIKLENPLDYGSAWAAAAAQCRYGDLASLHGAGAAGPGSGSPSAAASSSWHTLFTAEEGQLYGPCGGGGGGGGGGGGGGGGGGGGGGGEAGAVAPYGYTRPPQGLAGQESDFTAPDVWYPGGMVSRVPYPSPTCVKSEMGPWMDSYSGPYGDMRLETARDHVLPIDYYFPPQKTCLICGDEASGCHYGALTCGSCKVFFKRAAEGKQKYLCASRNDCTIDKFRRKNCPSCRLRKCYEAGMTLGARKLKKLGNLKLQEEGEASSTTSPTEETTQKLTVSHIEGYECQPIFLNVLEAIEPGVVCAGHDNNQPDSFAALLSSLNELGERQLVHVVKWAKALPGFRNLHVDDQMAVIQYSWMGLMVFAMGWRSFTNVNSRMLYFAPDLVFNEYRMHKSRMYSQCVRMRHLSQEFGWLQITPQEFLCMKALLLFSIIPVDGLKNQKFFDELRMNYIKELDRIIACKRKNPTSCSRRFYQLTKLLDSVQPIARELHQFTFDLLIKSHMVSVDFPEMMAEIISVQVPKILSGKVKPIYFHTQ
The assay is described as follows: Western blot degradation of AR. Conditions: LnCap Cell; 24 hours. The protocol: Conventional Western blot assay was performed to evaluate the effects of the compounds of the present disclosure on the expression of target proteins in cells.
(1) Cell Seeding and Protein Harvesting: The selected cells were processed according to the cell seeding procedure and protein harvesting procedure in Table II-2.
(2) To the collected supernatant, 5×SDS sample loading buffer was added, followed by denaturation at 95 °C for 5 minutes. The denatured samples were then separated by SDS-PAGE electrophoresis on a polyacrylamide gel. Proteins were transferred to a nitrocellulose membrane (0.45 μm NC membrane), blocked with blocking buffer at room temperature for 1 hour, and subjected to antibody incubation and development procedures according to the antibody manufacturer's instructions (Cell Signaling Technology).
Half-Maximal Degradation Concentration value (the drug concentration required for degrading proteins by 50%, abbreviated as DC50) reads method: comparing the grayscale values of Western blot bands from drug-treated samples with those from blank DMSO-treated controls, and identifying the drug concentration range at which the grayscale value is half that of the DMSO-treated control bands.
DC50 values can be calculated using ImageJ software to measure grayscale values of Western blot bands from drug-treated samples. The concentration-response curve is fitted to estimate the drug concentration corresponding to half the grayscale value.
Target protein remaining (%) refers to the percentage of target protein remaining in cells after treatment with protein degrader compounds.
Calculation method for target protein remaining (%): Use ImageJ software to measure grayscale values of Western blot bands from drug (protein degrader)-treated samples. The grayscale value of drug-treated bands is divided by that of internal control protein bands, and the resulting quotient is normalized to obtain the relative percentage of remaining target protein after protein degrader treatment.
Target protein degradation rate (%)=1−target protein remaining (%).

For assay [1], the system named is Human T lymphocytic leukemia cell line (Jurkat). As to the kind of experiment: Inhibition of Jurkat cell proliferation (CellTiter luminescent viability). To be noted: Homo sapiens, Table IF3, AR inhibitor-based, 96 hours. The protocol:
The tumor cells used herein were cultured in a cell culture medium listed in table 3 at 37 °C in an incubator with 5% CO2. Prior to experimentation, all cell lines used were correctly identified by STR profiling, and tested negative for mycoplasma contamination using a mycoplasma detection kit through routine screenings.
The IC50 values of the compounds of the present disclosure (including the compounds in Table 1, Table 2, and Examples 1-468) were determined using the CellTiter-Meiluncell Luminescent Cell Viability Assay Kit from Dalian Meilun Biotech Co., Ltd. The detailed procedure is as follows: Tumor cells were seeded in 96-well cell culture plates at the densities specified in Table 4. On the following day, the test compounds of the present disclosure were subjected to serial dilution. The dilution can be performed according to one of the following two methods: • (1) The first dilution method: The test compounds of the present disclosure (including the compounds in Table 1, Table 2, and Examples 1-468) were subjected to 5-fold serial dilutions starting from a highest concentration of 2000 μM, resulting in a total of 9 concentrations from high to low (2000, 400, 80, 16, 3.2, 0.64, 0.128, 0.0256, 0.00512 μM). Subsequently, 0.5 μL of the test compound dilution was transferred into the 96-well plate containing the cells, with each well containing 100 μL of cell culture medium. […] Into the 96-well plate, the diluted test compounds and corresponding detection reagents were added, resulting in final test compound concentrations of 500 nM and 10 nM, respectively. The experimental procedure is described below using the diluted 2 μM test compound as an example.
0.5 μL of the aforementioned diluted compound of the present disclosure (including the compounds in Table 1, Table 2, and Examples 1-468) was added to the seeded cells in 100 μL of medium, yielding a final test compound concentration of 10 nM. After the cells were treated with the compounds of the present disclosure for a specified period, the cell viability assay reagent was added to the culture medium according to the kit's instructions to determine cell viability. […] All controls were treated using the same procedure as the compounds of the present disclosure. The growth inhibition curves for the compounds of the present disclosure were plotted using Prism GraphPad software, and the IC50 values were calculated therefrom.

In assay [2] the test system is Human diffuse large B-cell lymphoma cell line (TMD8). As to the kind of experiment: Inhibition of TMD8 cell proliferation (CellTiter luminescent viability). Conditions: Homo sapiens, TMD8, 96 h, Table IF1, AR inhibitor-based; for inhibition at 0.01 µM: TMD8, 10 nM, read-out: Inhibition Rate at 10 nM (%); for inhibition at 0.5 µM: TMD8, 500 nM, read-out: Inhibition Rate at 500 nM (%).

The test system of assay [3] is Human acute lymphocytic leukemia T lymphocytes cell line (CCRF-CEM). As to the kind of experiment: Inhibition of CCRF-CEM cell proliferation (CellTiter luminescent viability). To be noted: Homo sapiens, 96 h, Table IF2, AR inhibitor-based; for inhibition at 0.01 µM: 10 nM, read-out: Inhibition Rate at 10 nM (%); for inhibition at 0.5 µM: 500 nM, read-out: Inhibition Rate at 500 nM (%).

On to `N#Cc1ccc(O[C@H]2CC[C@H](NC(=O)c3ccc(N4CCC(CN5CCN(c6ccc7c(c6)C(=O)N(N6CCC(=O)NC6=O)C7=O)CC5)CC4)nn3)CC2)cc1Cl` [GT-05225, N-((1r,4r)-4-(3-chloro-4-cyanophenoxy)cyclohexyl)-6-(4-((4-(2-(2,4-dioxotetrahydropyrimidin-1(2H)-yl)-1,3-dioxoisoindolin-5-yl)piperazin-1-yl)methyl)piperidin-1-yl)pyridazine-3-carboxamide], for which the “Degradation of substrate protein AR (substrate protein remaining %)” value (“Degradation … (substrate protein remaining %)” below) at AR is “A (0%≤substrate protein remaining %≤80%)”.
Consider `N#Cc1ccc(O[C@H]2CC[C@H](NC(=O)c3ccc(N4CCC(CN5CC6CCC(C5)N6c5ccc6c(c5)C(=O)N(N5CCC(=O)NC5=O)C6=O)CC4)nn3)CC2)cc1Cl` [GT-05229, N-((1r,4r)-4-(3-chloro-4-cyanophenoxy)cyclohexyl)-6-(4-((8-(2-(2,4-dioxotetrahydropyrimidin-1(2H)-yl)-1,3-dioxoisoindolin-5-yl)-3,8-diazabicyclo[3.2.1]octan-3-yl)methyl)piperidin-1-yl)pyridazine-3-carboxamide], for which the inhibition at 0.01 µM was in the range of 20 to 30% in assay [1] (10 nM, read-out: Inhibition Rate at 10 nM (%)); 40 to 60% in assay [2]; 30 to 40% in assay [3]. The inhibition at 0.5 µM lay within 40 to 60% in assay [1] (500 nM, read-out: Inhibition Rate at 500 nM (%)); 60 to 80% in assay [2]; 60 to 80% in assay [3]. Also, the “Degradation … (substrate protein remaining %)” value at AR was “A (0%≤substrate protein remaining %≤80%)”.
Turning to `CC1(C)[C@H](NC(=O)c2ccc(N3CCC(CN4CCN(c5ccc6c(c5F)C(=O)N(N5CCC(=O)NC5=O)C6=O)CC4)CC3)nc2)C(C)(C)[C@H]1Oc1ccc(C#N)c(Cl)c1` [GT-05828, N-((1r,3r)-3-(3-chloro-4-cyanophenoxy)-2,2,4,4-tetramethylcyclobutyl)-6-(4-((4-(2-(2,4-dioxotetrahydropyrimidin-1(2H)-yl)-4-fluoro-1,3-dioxoisoindolin-5-yl)piperazin-1-yl)methyl)piperidin-1-yl)nicotinamide], on AR, the “Degradation … (substrate protein remaining %)” value is recorded as “A (0%≤substrate protein remaining %≤80%)”.
With `N#Cc1ccc(O[C@H]2CC[C@H](NC(=O)c3ccc(N4CCC(CN5CCN(C6CCN(c7ccc8c(c7)C(=O)N(N7CCC(=O)NC7=O)C8=O)CC6)CC5)CC4)nn3)CC2)cc1Cl` [GT-05829, N-((1r,4r)-4-(3-chloro-4-cyanophenoxy)cyclohexyl)-6-(4-((4-(1-(2-(2,4-dioxotetrahydropyrimidin-1(2H)-yl)-1,3-dioxoisoindolin-5-yl)piperidin-4-yl)piperazin-1-yl)methyl)piperidin-1-yl)pyridazine-3-carboxamide], the inhibition at 0.01 µM in assay [2] lay within 10 to 15%; in assay [3], 15 to 20%. Also, the inhibition at 0.5 µM fell in the range of 35 to 40% in assay [2] and 20 to 30% in assay [3]. Also, the “Degradation … (substrate protein remaining %)” value at AR is “A (0%≤substrate protein remaining %≤80%)”.
For `Cc1ccc(-c2c(C)noc2C)cc1N(CC1CCN(Cc2ccc3c(c2)CN(N2CCC(=O)NC2=O)C3=O)CC1)c1ccc(C2(C#N)CC2)cc1` [GT-06409, 1-(4-((5-(3,5-dimethylisoxazol-4-yl)-2-methylphenyl)((1-((2-(2,4-dioxotetrahydropyrimidin-1(2H)-yl)-1-oxoisoindolin-5-yl)methyl)piperidin-4-yl)methyl)amino)phenyl)cyclopropane-1-carbonitrile], at AR, the “Degradation … (substrate protein remaining %)” value is on record as “A (0%≤substrate protein remaining %≤80%)”.
Same read-out and setting: the entry for `Cc1ccc(-c2c(C)noc2C)cc1N(CC1CCN(Cc2ccc3c(c2)C(=O)N(N2CCC(=O)NC2=O)C3=O)CC1)c1ccc(C2(C#N)CC2)cc1` [GT-06410, 1-(4-((5-(3,5-dimethylisoxazol-4-yl)-2-methylphenyl)((1-((2-(2,4-dioxotetrahydropyrimidin-1(2H)-yl)-1,3-dioxoisoindolin-5-yl)methyl)piperidin-4-yl)methyl)amino)phenyl)cyclopropane-1-carbonitrile] is “A (0%≤substrate protein remaining %≤80%)”; for `Cn1cc(-c2cc(S(C)(=O)=O)ccc2OCc2ccc3c(c2)CN(N2CCC(=O)NC2=O)C3=O)c2cc[nH]c2c1=O` [GT-06413, 1-(5-((2-(6-methyl-7-oxo-6,7-dihydro-1H-pyrrolo[2,3-c]pyridin-4-yl)-4-(methylsulfonyl)phenoxy)methyl)-1-oxoisoindolin-2-yl)dihydropyrimidine-2,4 (1H,3H)-dione] it is “A (0%≤substrate protein remaining %≤80%)”; for `Cc1ccc(-c2c(C)noc2C)cc1N(CC1CCN(CC2CCN(c3ccc4c(c3)C(=O)N(N3CCC(=O)NC3=O)C4=O)CC2)CC1)c1ccc(C2(C#N)CC2)cc1` [GT-06418, 1-(4-((5-(3,5-dimethylisoxazol-4-yl)-2-methylphenyl)((1-((1-(2-(2,4-dioxotetrahydropyrimidin-1(2H)-yl)-1,3-dioxoisoindolin-5-yl)piperidin-4-yl)methyl)piperidin-4-yl)methyl)amino)phenyl)cyclopropane-1-carbonitrile] it is “A (0%≤substrate protein remaining %≤80%)”.

The term inhibition denotes the change of the read-out against control, counted positive when it falls.
